Data on 20 molecules can be found in US20110230465A1, “VIRAL POLYMERASE INHIBITORS” (BOEHRINGER INGLEHEIM INTERNATIONAL GMBH, priority 2009, published 2011).

Assay [1] addresses T1, hepatitis C virus RNA dependent polymerase (NS5B) (Hepatitis C virus genotype 1b, UniProt P26663).
T1 construct: the RNA dependent RNA polymerase of HCV, specifically, the enzyme NS5B encoded by HCV
The experiment in a line: Inhibition of NS5B RNA dependent RNA polymerase activity. The assay is classed as biochemical. Conditions: assay of Example 158A; read-out: IC50 (nM) Ex 158A (converted). Here is the method:
Inhibition of NS5B RNA Dependent RNA Polymerase Activity
Representative compounds of the invention are tested for inhibitory activity against the hepatitis C virus RNA dependent polymerase (NS5B), using the assay described in WO2009/018657, herein incorporated by reference.

The subject of assay [2] is HCV RNA replication in Huh-7 cells with a stable subgenomic HCV replicon (MP-1 cells). The experiment in a line: microbe, parasite or virus in culture. It is filed as cell-based. To be noted: Hepatitis C virus, assay of Example 159A, read-out: EC50 (nM) Ex 159A (converted).

T1 sequence (P26663 2420-3010): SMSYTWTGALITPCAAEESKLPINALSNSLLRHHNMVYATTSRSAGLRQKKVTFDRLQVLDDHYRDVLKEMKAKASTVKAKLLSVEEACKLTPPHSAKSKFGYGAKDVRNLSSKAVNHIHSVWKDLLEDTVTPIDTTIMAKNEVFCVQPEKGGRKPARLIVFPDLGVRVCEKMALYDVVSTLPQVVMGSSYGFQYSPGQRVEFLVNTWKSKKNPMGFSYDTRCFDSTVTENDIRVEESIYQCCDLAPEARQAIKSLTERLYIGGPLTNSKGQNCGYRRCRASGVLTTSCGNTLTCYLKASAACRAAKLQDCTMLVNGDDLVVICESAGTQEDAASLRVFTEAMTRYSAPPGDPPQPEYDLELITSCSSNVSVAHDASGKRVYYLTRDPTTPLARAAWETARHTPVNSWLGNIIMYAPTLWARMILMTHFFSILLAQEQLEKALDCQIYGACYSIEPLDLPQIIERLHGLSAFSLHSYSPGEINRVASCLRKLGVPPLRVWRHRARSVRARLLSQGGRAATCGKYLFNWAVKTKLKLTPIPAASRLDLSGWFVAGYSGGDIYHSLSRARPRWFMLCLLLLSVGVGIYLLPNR

On to `Cc1ccc(Cn2cnc(=O)c3cc(Oc4ccc(C(N)=O)cc4)ccc32)c(F)c1` [Compound 1030], for which the IC50 (in general, the concentration that inhibits the measured activity by half) in assay [1] was 610 nM. The EC50 (usually the midpoint of the concentration-response curve) in assay [2] is 8500 nM. In the case of `O=c1ncn(Cc2c(F)cc(F)cc2F)c2ccc(O[C@H]3CC[C@H](CO)CC3)cc12` [Compound 2061], the IC50 in assay [1] was 530 nM. In assay [2], the EC50 was 2500 nM.

As to `Cc1ccc(Cn2cnc(=O)c3cc(Oc4ncccc4C(F)(F)F)ccc32)c(-c2ccsc2)c1` [Compound 3052], the IC50 in assay [1] is 110 nM. In addition, the EC50 in assay [2] was 210 nM. In the case of `Cc1ccc(-c2ncccc2-n2cnc(=O)c3cc(Oc4ncccc4C(F)(F)F)ccc32)cc1` [Compound 3090], in assay [1], the IC50 is 130 nM. Also, in assay [2], the EC50 is 82 nM. The matching figures for `COCCOc1ccnc(Oc2ccc3c(c2)c(=O)ncn3Cc2c(F)cc(F)cc2F)c1C(F)(F)F` [Compound 4003]: 67 nM and 61 nM. As for `O=c1ncn(Cc2c(F)cc(F)cc2F)c2ccc(Oc3ncc(Cc4nn[nH]n4)cc3C(F)(F)F)cc12` [Compound 4020], the IC50 in assay [1] was 78 nM. For the same molecule, the EC50 in assay [2] is 5400 nM. For `O=c1ncn(Cc2ccc(F)cc2F)c2ccc(Oc3ncc(Cn4nccn4)cc3C(F)(F)F)cc12` [Compound 5001], the half-inhibitory concentration (IC50) in assay [1] is 240 nM. In assay [2], the EC50 was 470 nM. For `NC(=O)Cc1cccc(Oc2ccc3c(c2)c(=O)ncn3Cc2c(F)cc(F)cc2F)c1C(F)(F)F` [Compound 6036] the same measures were 18 nM and 60 nM. As to `Cc1ncccc1NC(=O)c1ccc(Oc2ccc3c(c2)c(=O)ncn3Cc2c(F)cc(F)cc2F)c(C(F)(F)F)c1` [Compound 6047], in assay [1], the IC50 is 15 nM. Besides, the EC50 in assay [2] was 10 nM.

For `CN(C)C(=O)c1cccc(Oc2ccc3c(c2)c(=O)ncn3Cc2c(F)cc(F)cc2F)c1` [Compound 7034], in assay [1], the IC50 is 4900 nM. Further, the EC50 in assay [2] is 5700 nM.

Consider `CN(C)c1cc2c(cc1Oc1ncccc1C(F)(F)F)c(=O)ncn2Cc1ccc(F)cc1F` [Compound 8009], for which, in assay [2], the EC50 was more than 10000 nM. Regarding `CCc1nc(=O)c2cc(Oc3ncccc3C(F)(F)F)ccc2n1-c1cccnc1-c1ccc(C)cc1F` [Compound 8011], the IC50 in assay [1] is 34500 nM. Also, in assay [2], the EC50 is 4800 nM. For the molecule `CCNc1ccc(-c2cccc(Oc3ccc4c(c3)c(=O)ncn4[C@H](C)c3c(F)cc(F)cc3F)c2C(F)(F)F)cn1` [Compound 9001], the IC50 in assay [1] is 23 nM. Regarding `C[C@H](c1c(F)cc(F)cc1F)n1cnc(=O)c2cc(Oc3cccc(-c4ccc(N)nc4)c3C(F)(F)F)ccc21` [Compound 9003], in assay [1], the IC50 was 18 nM. Also, the EC50 in assay [2] is 4 nM.

Turning to `C[C@H](c1c(F)cc(F)cc1F)n1cnc(=O)c2cc(Oc3cccc(-c4ncc(N)cn4)c3C(F)(F)F)ccc21` [Compound 9011], the IC50 in assay [1] is 7.8 nM. As for `O=c1ncn(Cc2c(F)cc(F)cc2F)c2ccc(Oc3cccc(-c4cccc5[nH]ccc45)c3C(F)(F)F)cc12` [Compound 9016], the IC50 in assay [1] was 25 nM. Moreover, in assay [2], the EC50 was 2.2 nM. In the case of `Cc1c(-c2cccc(Oc3ccc4c(c3)c(=O)ncn4Cc3c(F)cc(F)cc3F)c2C(F)(F)F)cnn1-c1ccccc1` [Compound 9019], in assay [1], the IC50 was 51 nM. The half-maximal effective concentration (EC50) in assay [2] was 183 nM.

For the molecule `O=c1ncn(Cc2c(F)cc(F)cc2F)c2ccc(Oc3cccc(-c4ccc5nonc5c4)c3C(F)(F)F)cc12` [Compound 9020], in assay [1], the 50% inhibitory concentration (IC50) was 107 nM. Further, the EC50 in assay [2] is 199 nM. As for `Cc1nc(-c2cccc(Oc3ccc4c(c3)c(=O)ncn4[C@H](C)c3c(F)cc(F)cc3F)c2C(F)(F)F)ncc1N` [Compound 9025], in assay [1], the IC50 is 14 nM.

For `N#Cc1cc(-c2cccc(Oc3ccc4c(c3)c(=O)ncn4Cc3c(F)cc(F)cc3F)c2C(F)(F)F)cnc1N` [Compound 9026], the IC50 in assay [1] is 28 nM.
